In ChEMBL document CHEMBL1130467, “Synthesis and antitumor activity of novel cyclopropapyrroloindole(CPI) derivatives bearing methoxycarbonyl and trifluoromethyl groups” (Bioorg Med Chem Lett, 1997):
In brackets after ≈: the same amount, converted by molar mass.

What was measured:
Colon 26 [1] = test: Antitumor activity against colon 26 murine adenocarcinoma cells expressed as % body weight change at 0.125 mg/kg compound dose from day 7 to day 12; format: functional, Mus musculus
Colon 26 [2] = test: Antitumor activity against colon 26 murine adenocarcinoma cells expressed as maximum dose within 10% body weight loss at 0.500 mg/kg i.v. compound dose; format: functional, Mus musculus; settings: dose 0.5 mg/kg; route intravenous
Colon 26 [3] = test: Antitumor activity against colon 26 murine adenocarcinoma cells expressed as % body weight change at 0.500 mg/kg compound dose from day 7 to day 12; format: functional, Mus musculus; settings: dose 0.5 mg/kg
Colon 26 [4] = test: Antitumor activity against colon 26 murine adenocarcinoma cells expressed as percent TGI (tumor growth inhibition) at 0.125 mg/kg i.v. compound dose; format: functional; settings: Mus musculus, route intravenous, read-out: TGI
Colon 26 [5] = test: Antitumor activity against colon 26 murine adenocarcinoma cells expressed as percent TGI (tumor growth inhibition) at 0.500 mg/kg i.v. compound dose; format: functional; settings: Mus musculus, route intravenous, read-out: TGI
Colon 26 [6] = test: Antitumor activity against colon 26 murine adenocarcinoma cells expressed as % body weight change at 0.250 mg/kg compound dose from day 7 to day 12; format: functional, Mus musculus; settings: dose 0.25 mg/kg
Colon 26 [7] = test: Antitumor activity against colon 26 murine adenocarcinoma cells expressed as percent TGI (tumor growth inhibition) at 0.0625 mg/kg i.v. compound dose; format: functional; settings: Mus musculus, route intravenous, read-out: TGI
Colon 26 [8] = test: Antitumor activity against colon 26 murine adenocarcinoma cells expressed as % body weight change at 0.0625 mg/kg compound dose from day 7 to day 12; format: functional, Mus musculus
Colon 26 [9] = test: Antitumor activity against colon 26 murine adenocarcinoma cells expressed as percent TGI 50 (tumor growth inhibition) at 0.500 mg/kg i.v. compound dose; format: functional, Mus musculus; settings: dose 0.5 mg/kg; route intravenous
Colon 26 [10] = test: Antitumor activity against colon 26 murine adenocarcinoma cells expressed as percent TGI (tumor growth inhibition) at 0.250 mg/kg i.v. compound dose; format: functional; settings: Mus musculus, route intravenous, read-out: TGI
HeLa = test: Concentration required for 50% inhibition of human uterine Cervix Carcinoma cells (HeLaS3); format: functional, cell-based
Colon 26 [11] = test: Antitumor activity against colon 26 murine adenocarcinoma cells expressed as percent TGI (tumor growth inhibition) at 0.177 mg/kg i.v. compound dose; format: functional; settings: Mus musculus, route intravenous, read-out: TGI
Colon 26 [12] = test: Antitumor activity against colon 26 murine adenocarcinoma cells expressed as percent TGI 50 (tumor growth inhibition) at 0.177 mg/kg i.v. compound dose; format: functional, Mus musculus; settings: route intravenous
Colon 26 [13] = test: Antitumor activity against colon 26 murine adenocarcinoma cells expressed as % body weight change at 0.0313 mg/kg compound dose from day 7 to day 12; format: functional, Mus musculus
Colon 26 [14] = test: Antitumor activity against colon 26 murine adenocarcinoma cells expressed as % body weight change at 0.177 mg/kg i.v. compound dose from day 7 to day 12; format: functional, Mus musculus; settings: route intravenous
P388 [15] = test: Percent increase in life span of p388 murine leukemia cells (inoculated i.p. on day 0) as compared to that of untreated group at 0.25 mg/kg i.p. compound dose on day 1; cured mice =2/2; format: functional; settings: Mus musculus, P388, ip, route intraperitoneal
Colon 26 [16] = test: Antitumor activity against colon 26 murine adenocarcinoma cells expressed as maximum dose within 10% body weight loss at 0.177 mg/kg i.v. compound dose; format: functional, Mus musculus; settings: route intravenous
Colon 26 [17] = test: Antitumor activity against colon 26 murine adenocarcinoma cells expressed as percent TGI (tumor growth inhibition) at 0.0313 mg/kg i.v. compound dose; format: functional; settings: Mus musculus, route intravenous, read-out: TGI
P388 [18] = test: Concentration required to inhibit p388 murine leukemia cells by 50%; format: functional, cell-based; settings: Mus musculus
[19] = Percent tumor growth (TGI) inhibition against S180 murine Sarcoma cells( inoculated s.c. into male ICR mice on day 0), as compared to that of untreated group at 0.25 mg/kg i.v. compound dose on day 1; format: functional; settings: Mus musculus, CCRF S-180, route intravenous, read-out: TGI
[20] = Percent tumor growth (TGI) inhibition against S180 murine Sarcoma cells( inoculated s.c. into male ICR mice on day 0), as compared to that of untreated group at 0.5 mg/kg i.v. compound dose on day 1; format: functional; settings: Mus musculus, CCRF S-180, route intravenous, read-out: TGI
P388 [21] = test: Percent increase in life span of p388 murine leukemia cells (inoculated i.p. on day 0) as compared to that of untreated group at 0.125 mg/kg i.p. compound dose on day 1; format: functional; settings: Mus musculus, P388, ip, route intraperitoneal
P388 [22] = test: Percent increase in life span of p388 murine leukemia cells (inoculated i.p. on day 0) as compared to that of untreated group at 0.25 mg/kg i.p. compound dose on day 1; cured mice= 2/2; format: functional; settings: Mus musculus, P388, ip, route intraperitoneal
Colon 26 [23] = test: Antitumor activity against colon 26 murine adenocarcinoma cells expressed as % body weight change at 0.707 mg/kg compound dose from day 7 to day 12; format: functional, Mus musculus
Colon 26 [24] = test: Antitumor activity against colon 26 murine adenocarcinoma cells expressed as percent TGI (tumor growth inhibition) at 0.707 mg/kg i.v. compound dose; format: functional; settings: Mus musculus, route intravenous, read-out: TGI
Colon 26 [25] = test: Antitumor activity against colon 26 murine adenocarcinoma cells expressed as maximum dose within 10% body weight loss at 0.707 mg/kg i.v. compound dose; format: functional, Mus musculus; settings: route intravenous
Colon 26 [26] = test: Antitumor activity against colon 26 murine adenocarcinoma cells expressed as percent TGI 50 (tumor growth inhibition) at 0.707 mg/kg i.v. compound dose; format: functional, Mus musculus; settings: route intravenous

SMILES	Change in body weight (Colon 26 [1])	inhibition in vivo at 0.125 mg/kg (Colon 26 [4])	IC50 (HeLa)	IC50 (P388 [18])	inhibition in vivo at 0.25 mg/kg [19]	inhibition in vivo at 0.5 mg/kg [20]	ILS at 0.125 mg/kg (P388 [21])	other results
COC(=O)c1c(C(F)(F)F)[nH]c2c(OC(=O)N3CCN(C)CC3)cc3c(c12)[C@H](CBr)CN3C(=O)c1cc2cc(OC)c(OC)c(OC)c2[nH]1	1%	76%	18.8 ng/mL (≈ 25 nM)					MTD/ TGI50 (Colon 26 [2]): 11.7; Change in body weight (Colon 26 [3]): 8%; inhibition in vivo at 0.5 mg/kg (Colon 26 [5]): 93%; Change in body weight (Colon 26 [6]): 5%; inhibition in vivo at 0.0625 mg/kg (Colon 26 [7]): 58%; Change in body weight (Colon 26 [8]): 2%; TGI50 (Colon 26 [9]): 0.0429; inhibition in vivo at 0.25 mg/kg (Colon 26 [10]): 90%
COC(=O)c1c(C(F)(F)F)[nH]c2c1C13CC1CN(C(=O)c1cc4cc(NC(=O)c5cc6ccccc6o5)ccc4[nH]1)C3=CC2=O (racemic)	-4%	87%	0.365 ng/mL (≈ 0.594 nM)	0.53 ng/mL (≈ 0.862 nM)	83%			inhibition in vivo at 0.177 mg/kg (Colon 26 [11]): 85%; TGI50 (Colon 26 [12]): 0.041; Change in body weight (Colon 26 [13]): 0%; Change in body weight (Colon 26 [14]): -3%; ILS at 0.25 mg/kg (P388 [15]): 2%; inhibition in vivo at 0.0625 mg/kg (Colon 26 [7]): 68%; Change in body weight (Colon 26 [8]): -3%; MTD/ TGI50 (Colon 26 [16]): 4.3; inhibition in vivo at 0.0313 mg/kg (Colon 26 [17]): 39%
COC(=O)c1c(C(F)(F)F)[nH]c2c1C13CC1CN(C(=O)c1cc4cc(OC)c(OC)c(OC)c4[nH]1)C3=CC2=O (racemic)				0.24 ng/mL (≈ 0.44 nM)		92%	94%	
COC(=O)c1[nH]c2c(c1C(=O)OC)C13CC1CN(C(=O)c1cc4cc(NC(=O)c5cc6ccccc6o5)ccc4[nH]1)C3=CC2=O (racemic)				0.66 ng/mL (≈ 1.09 nM)		26%	79%	
COC(=O)c1c(C(F)(F)F)[nH]c2c1C13CC1CN(C(=O)c1cc4cc(NC(=O)c5cc6ccccc6[nH]5)ccc4[nH]1)C3=CC2=O (racemic)				0.86 ng/mL (≈ 1.4 nM)	84%			ILS at 0.25 mg/kg (P388 [22]): 2%
COC(=O)c1c(C(F)(F)F)[nH]c2c1C13CC1CN(C(=O)c1cc4cc(OC)ccc4[nH]1)C3=CC2=O (racemic)				0.23 ng/mL (≈ 0.474 nM)	54%		69%	
COC(=O)c1c(C)[nH]c2c1[C@@]13C[C@@H]1CN(C(=O)c1cc4cc(OC)c(OC)c(OC)c4[nH]1)C3=CC2=O (racemic)				0.34 ng/mL (≈ 0.692 nM)		81%	80%	
COC(=O)c1[nH]c2c(c1C(=O)OC)C13CC1CN(C(=O)c1cc4cc(NC(=O)c5cc6ccccc6[nH]5)ccc4[nH]1)C3=CC2=O (racemic)				0.31 ng/mL (≈ 0.514 nM)		44%	102%	
COC(=O)c1c(C)[nH]c2c(OC(=O)N3CCN(C)CC3)cc3c(c12)[C@H](CBr)CN3C(=O)c1cc2cc(OC)c(OC)c(OC)c2[nH]1 [PIBROZELESIN]	1%	26%	18.1 ng/mL (≈ 25.9 nM)					Change in body weight (Colon 26 [23]): -9%; inhibition in vivo at 0.707 mg/kg (Colon 26 [24]): 90%; MTD/ TGI50 (Colon 26 [25]): 3.4; Change in body weight (Colon 26 [3]): -1%; inhibition in vivo at 0.5 mg/kg (Colon 26 [5]): 85%; Change in body weight (Colon 26 [6]): -2%; inhibition in vivo at 0.25 mg/kg (Colon 26 [10]): 62%; TGI50 (Colon 26 [26]): 0.209 mg/kg
